Six molecules from ChEMBL document CHEMBL1201862, “PubChem BioAssay data set” (2004) can be followed below.

One assay deals with Melanocortin receptor 4 (Homo sapiens, UniProt P32245). It is filed as functional, cell-based.
Another assay has as its system Vero. As to the kind of experiment: Vero cell toxicity, dose response, cytotoxicity control, plate reader, cherry-pick samples (AID 687020). Conditions: Chlorocebus sabaeus. It is filed as functional, cell-based.
A short description of assay [1]: miR-122 activators in hepatoma reporter cells, dose response, cell-based, Huh7 psiCHECK-miR122, Renilla luciferase, cherry-picked (AID 651956).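 Also: huh7 hepatoma cells stably carrying a psiCHECK-2 miR-122 sensor plasmid; renilla luciferase signal reporting endogenous miR-122 activity after 48 h compound exposure.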 It is filed as functional.
Assay [2] is described as follows: HEK293T cytotoxicity, dose response, cytotoxicity control for miR-122 modulator project, cell-based, inhibitor set, cherry-pick, set 2 (AID 720697). It is filed as functional.
A short description of assay [3]: HEK293T cytotoxicity, dose response, cytotoxicity control for miR-122 modulator project, cell-based, activator set, cherry-pick (AID 720690).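 Also: HEK293T human cells scored for general mammalian cytotoxicity.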 It counts as functional.
Assay [4] is described as follows: Luminescence Cell-Based Dose Response HTS to Identify Activators of Luciferase Translation or Activity in H4 […] Cells. [Related pubchem assays: 1829 (Project Summary), 1814 (Primary HTS)]. It is filed as functional.
In another assay the test system is H4. As to the kind of experiment: Luminescence Cell-Based Dose Response HTS to Identify Activators of 5'UTR Stem-Loop Driven Prion Protein mRNA Translation in H4 Neuroglioblastoma Cells. [Related pubchem assays: 1829 (Project Summary), 1814 (Primary HTS)]. It counts as functional. Conditions: Homo sapiens.
The next assay relates to HeLa. As to the kind of experiment: HeLa cell cytotoxicity, dose response, cytotoxicity control for MITF activator project, CellTiter-Glo luminescence, cherry-pick samples (AID 540259). It is filed as functional, cell-based. Conditions: Homo sapiens.
For a further assay, the target named is Hexokinase (Trypanosoma brucei, UniProt Q38C41). The assay can be described thus: Confirmation assay for inhibitors of Trypanosoma brucei hexokinase 1-Analogue-first series. [Related pubchem assays (depositor defined):AID1430, AID1632, AID2516, AID2560, AID2579, AID2600, AID449725, AID492951]. It is filed as functional.
Assay [5] deals with Glucose-6-phosphate 1-dehydrogenase (Homo sapiens, UniProt P11413). The assay can be described thus: human G6PD enzyme inhibitors, dose response, selectivity assay for P. falciparum G6PD inhibitor project, biochemical, fluorescence (AID 504792). It is filed as functional.
The target of assay [6] is Mitochondrial peptide methionine sulfoxide reductase (Bos taurus, UniProt P54149). The assay can be described thus: Absorbance-based biochemical high throughput dose response assay for activators of Methionine sulfoxide reductase A (MsrA). It is filed as functional.
Assay [7] can be described thus: Fluorescence-based cell-based high throughput dose response assay for inhibitors of the interaction of nucleotide-binding oligomerization domain containing 2 (NOD2) and the receptor-interacting serine-threonine kinase 2 (RIPK2). It is filed as functional. The note with it: Homo sapiens.
The next assay concerns the target Beta Lactamase (Pseudomonas aeruginosa, UniProt Q932Y6). As to the kind of experiment: beta-lactamase reporter inhibitor potency, dose response, artefact control for NOD2-RIPK2 interaction inhibitor project, BLA reporter cells, FRET fluorescence (AID 651552). It counts as functional, cell-based.
In assay [8] the target is T1, Rac GTPase-activating protein 1 (Homo sapiens, UniProt Q9H0H5).
T1 sequence (Q9H0H5 whole entry): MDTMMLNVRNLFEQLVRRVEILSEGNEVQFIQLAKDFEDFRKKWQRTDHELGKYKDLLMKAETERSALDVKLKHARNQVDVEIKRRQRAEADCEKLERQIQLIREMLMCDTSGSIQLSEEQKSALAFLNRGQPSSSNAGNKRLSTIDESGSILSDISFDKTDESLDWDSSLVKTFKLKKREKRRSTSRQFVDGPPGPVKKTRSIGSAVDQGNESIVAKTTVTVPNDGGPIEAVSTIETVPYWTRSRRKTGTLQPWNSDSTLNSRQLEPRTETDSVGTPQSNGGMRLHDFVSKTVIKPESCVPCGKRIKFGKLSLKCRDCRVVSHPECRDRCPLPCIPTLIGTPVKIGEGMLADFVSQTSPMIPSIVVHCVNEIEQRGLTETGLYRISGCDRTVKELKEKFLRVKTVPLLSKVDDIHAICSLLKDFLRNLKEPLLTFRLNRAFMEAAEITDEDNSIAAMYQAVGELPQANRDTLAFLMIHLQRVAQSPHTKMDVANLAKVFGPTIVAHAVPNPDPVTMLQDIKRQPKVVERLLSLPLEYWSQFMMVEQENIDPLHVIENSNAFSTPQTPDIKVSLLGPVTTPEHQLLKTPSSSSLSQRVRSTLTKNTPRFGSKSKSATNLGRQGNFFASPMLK
The assay can be described thus: MgcRacGAP GTPase-activating activity inhibitors, confirmation, biochemical, ADP Hunter fluorescence, primary and confirmatory (AID 624330). It counts as functional.

Assay [9] concerns the target SWI/SNF-related matrix-associated actin-dependent regulator of chromatin subfamily A member 2 (Homo sapiens, UniProt P51531). The assay can be described thus: Luminescence-based cell-based high throughput dose response assay to identify activators of the function of SWI/SNF related, matrix associated, actin dependent regulator of chromatin, subfamily a, member 2 (SMARCA2, BRM). It is filed as functional.

Assay [10] can be described thus: Counterscreen for activators of the function of SWI/SNF related, matrix associated, actin dependent regulator of chromatin, subfamily a, member 2 (SMARCA2, BRM): Luminescence-based cell-based high throughput dose response assay to identify non-selective compounds using the VP16 reporter assay. It is filed as functional. Background: A counterscreen serves to expose hits that act by an unwanted route or on another target.

Assay [11] relates to HEK293. The assay can be described thus: cytotoxicity in HEK293T NF-kB-Luc cells, SAR follow-up, cytotoxicity control for NF-kB activator project, cell-based, resazurin fluorescence (AID 493251). It counts as functional. The note with it: Homo sapiens. (In general: Resazurin is reduced to fluorescent resorufin, in cell work by metabolically active cells.)
The test system of the next assay is Jurkat. As to the kind of experiment: SAR Analysis of small molecule inhibitors of T-cell specific antigen receptor-induced NF-kB activation in a Jurkat cell line using a luminescence assay - Set 2. [Related pubchem assays (depositor defined):AID435003, AID435012, AID465]. It is filed as functional, cell-based. Conditions: Homo sapiens.
The subject of assay [12] is HEK293. As to the kind of experiment: SAR Analysis of small molecule inhibitors of T-cell specific antigen receptor-induced NF-kB activation in a HEK-293T cell line using a luminescence assay - Set 2. [Related pubchem assays (depositor defined):AID435003, AID435012, AID489026]. It is filed as functional, cell-based. The note with it: Homo sapiens.

In general, EC50 refers to the concentration that produces a half-maximal response. By AC50 is commonly meant the midpoint of the concentration-response curve, whichever way the signal moves. The IC50 is the concentration needed to halve the response being measured.

The source made the active and inactive calls. Where only a bound is given, the exact number is not on record here.

SWI/SNF-related matrix-associated actin-dependent regulator of chromatin subfamily A member 2, sequence (P51531 whole entry): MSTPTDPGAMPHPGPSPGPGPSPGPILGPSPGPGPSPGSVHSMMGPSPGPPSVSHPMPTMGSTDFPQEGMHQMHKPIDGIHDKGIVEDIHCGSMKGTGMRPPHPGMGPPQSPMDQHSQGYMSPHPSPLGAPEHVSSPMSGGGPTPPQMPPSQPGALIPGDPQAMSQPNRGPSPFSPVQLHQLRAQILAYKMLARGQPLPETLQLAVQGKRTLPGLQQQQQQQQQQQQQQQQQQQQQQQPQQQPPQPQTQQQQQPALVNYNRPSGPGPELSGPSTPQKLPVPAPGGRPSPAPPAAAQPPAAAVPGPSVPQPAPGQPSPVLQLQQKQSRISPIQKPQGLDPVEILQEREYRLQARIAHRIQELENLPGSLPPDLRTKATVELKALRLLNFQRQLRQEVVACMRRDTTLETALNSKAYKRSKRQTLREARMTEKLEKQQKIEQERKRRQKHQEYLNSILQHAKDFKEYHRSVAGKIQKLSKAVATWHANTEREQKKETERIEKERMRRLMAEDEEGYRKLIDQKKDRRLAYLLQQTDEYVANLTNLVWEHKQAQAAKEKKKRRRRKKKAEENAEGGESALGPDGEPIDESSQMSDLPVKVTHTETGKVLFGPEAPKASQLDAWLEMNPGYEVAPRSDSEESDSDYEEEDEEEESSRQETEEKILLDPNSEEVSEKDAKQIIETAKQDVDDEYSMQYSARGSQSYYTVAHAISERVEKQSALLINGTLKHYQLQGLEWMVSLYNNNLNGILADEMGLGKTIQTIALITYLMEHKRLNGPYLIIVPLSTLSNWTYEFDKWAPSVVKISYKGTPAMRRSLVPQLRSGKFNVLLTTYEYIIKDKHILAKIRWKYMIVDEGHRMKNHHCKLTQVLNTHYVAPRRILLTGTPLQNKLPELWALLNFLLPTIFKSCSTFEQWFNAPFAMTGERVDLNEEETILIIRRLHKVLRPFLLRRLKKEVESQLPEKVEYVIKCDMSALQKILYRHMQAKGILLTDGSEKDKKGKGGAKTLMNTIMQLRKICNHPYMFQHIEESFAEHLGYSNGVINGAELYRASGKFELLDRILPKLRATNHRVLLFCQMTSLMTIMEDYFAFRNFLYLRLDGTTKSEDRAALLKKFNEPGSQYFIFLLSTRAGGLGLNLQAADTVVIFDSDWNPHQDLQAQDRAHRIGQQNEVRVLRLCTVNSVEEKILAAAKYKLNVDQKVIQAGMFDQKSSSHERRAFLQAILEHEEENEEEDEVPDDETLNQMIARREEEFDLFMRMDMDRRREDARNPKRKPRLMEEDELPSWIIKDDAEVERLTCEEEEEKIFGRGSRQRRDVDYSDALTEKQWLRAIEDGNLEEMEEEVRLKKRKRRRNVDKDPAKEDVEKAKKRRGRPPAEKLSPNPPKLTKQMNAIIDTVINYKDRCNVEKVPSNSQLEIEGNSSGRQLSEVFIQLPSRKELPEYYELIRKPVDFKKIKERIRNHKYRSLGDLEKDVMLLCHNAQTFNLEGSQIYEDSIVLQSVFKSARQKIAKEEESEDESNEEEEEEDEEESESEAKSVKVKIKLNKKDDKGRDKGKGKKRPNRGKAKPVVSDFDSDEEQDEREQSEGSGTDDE
Hexokinase, sequence (Q38C41 whole entry): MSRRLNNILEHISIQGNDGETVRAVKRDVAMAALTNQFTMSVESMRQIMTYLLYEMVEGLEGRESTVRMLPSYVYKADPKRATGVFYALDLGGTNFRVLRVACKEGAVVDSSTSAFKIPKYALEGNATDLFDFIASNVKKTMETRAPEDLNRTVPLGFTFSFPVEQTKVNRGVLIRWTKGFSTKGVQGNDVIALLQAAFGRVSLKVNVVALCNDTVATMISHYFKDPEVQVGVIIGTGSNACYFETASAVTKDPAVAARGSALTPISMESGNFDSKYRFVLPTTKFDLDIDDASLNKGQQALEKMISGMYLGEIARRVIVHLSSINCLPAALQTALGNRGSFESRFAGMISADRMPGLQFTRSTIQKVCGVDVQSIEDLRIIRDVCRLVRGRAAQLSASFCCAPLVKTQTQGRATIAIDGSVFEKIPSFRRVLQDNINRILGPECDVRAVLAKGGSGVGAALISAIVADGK
Beta Lactamase, sequence (Q932Y6 whole entry): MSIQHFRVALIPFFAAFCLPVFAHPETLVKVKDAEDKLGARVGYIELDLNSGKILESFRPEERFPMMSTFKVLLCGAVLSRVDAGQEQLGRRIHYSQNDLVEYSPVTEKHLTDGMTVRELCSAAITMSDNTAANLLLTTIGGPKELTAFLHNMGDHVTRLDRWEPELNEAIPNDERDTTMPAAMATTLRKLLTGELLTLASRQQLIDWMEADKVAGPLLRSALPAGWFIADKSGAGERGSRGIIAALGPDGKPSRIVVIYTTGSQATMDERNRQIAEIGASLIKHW
Melanocortin receptor 4, sequence (P32245 whole entry): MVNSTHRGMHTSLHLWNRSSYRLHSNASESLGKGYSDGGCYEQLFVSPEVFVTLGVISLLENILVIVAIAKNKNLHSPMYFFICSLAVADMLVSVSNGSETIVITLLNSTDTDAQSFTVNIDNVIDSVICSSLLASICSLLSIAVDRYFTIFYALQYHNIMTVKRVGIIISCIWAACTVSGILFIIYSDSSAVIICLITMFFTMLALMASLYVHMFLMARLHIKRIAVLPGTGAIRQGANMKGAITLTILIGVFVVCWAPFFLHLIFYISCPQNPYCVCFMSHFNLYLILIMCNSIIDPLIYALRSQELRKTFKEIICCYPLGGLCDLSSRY
Mitochondrial peptide methionine sulfoxide reductase, sequence (P54149 whole entry, the tested form may be a part): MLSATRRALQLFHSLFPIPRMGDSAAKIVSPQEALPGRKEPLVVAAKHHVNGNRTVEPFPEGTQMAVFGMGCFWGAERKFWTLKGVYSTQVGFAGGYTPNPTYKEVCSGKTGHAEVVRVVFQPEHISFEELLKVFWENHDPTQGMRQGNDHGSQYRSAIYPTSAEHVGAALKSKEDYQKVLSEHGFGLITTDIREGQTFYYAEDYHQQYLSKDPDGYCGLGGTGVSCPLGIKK
Glucose-6-phosphate 1-dehydrogenase, sequence (P11413 whole entry): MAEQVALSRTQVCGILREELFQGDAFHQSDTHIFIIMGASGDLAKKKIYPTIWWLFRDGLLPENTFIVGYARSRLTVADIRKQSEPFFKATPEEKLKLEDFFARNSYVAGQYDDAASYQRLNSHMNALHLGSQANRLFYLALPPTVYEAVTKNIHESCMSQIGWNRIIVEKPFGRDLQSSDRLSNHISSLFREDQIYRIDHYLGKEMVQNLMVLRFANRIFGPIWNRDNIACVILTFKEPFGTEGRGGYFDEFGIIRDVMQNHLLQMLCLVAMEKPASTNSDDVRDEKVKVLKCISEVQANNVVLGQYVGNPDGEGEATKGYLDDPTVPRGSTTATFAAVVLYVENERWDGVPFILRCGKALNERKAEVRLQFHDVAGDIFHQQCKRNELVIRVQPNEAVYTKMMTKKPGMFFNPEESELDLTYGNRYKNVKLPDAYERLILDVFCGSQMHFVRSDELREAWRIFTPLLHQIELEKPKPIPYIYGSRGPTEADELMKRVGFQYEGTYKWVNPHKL

In the case of `CC(=O)Nc1cc(-c2ccc(N(C)C)cc2)cn2c(-c3ccc(F)c(Cl)c3)cnc12`, on Melanocortin receptor 4, the 50% effective concentration (EC50) is 3.99 µM (active).
In the case of `COc1ccc(NC(=O)N[C@H]2CC[C@@H](CCn3cc(C4(O)CCCC4)nn3)O[C@@H]2CO)cc1`, in the assay with Vero, the half-maximal activity concentration (AC50) was 36.7 µM (active).
As for `C[C@H](CO)N1C[C@H](C)[C@H](CN(C)C(=O)c2ccc3c(c2)OCO3)Oc2cc(C#Cc3ccccc3F)ccc2S1(=O)=O`, the AC50 was 36.6 µM (active) in assay [1], 23.7 µM (active) in assay [2] and 20.8 µM (active) in assay [3].
Regarding `Cc1ccc(Sc2cnc3ccccc3n2)cc1`, the EC50 in assay [4] was 3.64 µM (active); in the assay on H4 it was 10.1 µM (active). Moreover, the AC50 in the assay with HeLa is 44.3 µM (active).
`CC(=O)Nc1ccc2sn(-c3ccccc3)c(=O)c2c1`: the IC50 at Hexokinase is 6.31 µM (active); in [5], 12.1 µM (active); in [7], 6.19 µM (active); on Beta Lactamase, 23.4 µM (inactive); in assay [8] it was 53.3 µM (active). The EC50 in assay [6] is > 104 µM (inactive); in assay [9], > 91.2 µM (inactive); in [10], > 91.2 µM (inactive).
`Cc1ccc(NC(=O)c2ccc([N+](=O)[O-])o2)cc1C(F)(F)F`: the IC50 is 60 µM (inactive) with HEK293 [11], 0.45 µM (active) in the assay on Jurkat and 68.5 µM (inactive) in the assay on HEK293 [12].
